Measured values reported in US6872833B2, “Adenosine receptor ligands” (Hoffmann-La Roche Inc., priority 2003, dated 2005).

Assays:
[1] = target: T1, human adenosine A2A receptor (Homo sapiens, UniProt P29274); test: [3H]-SCH-58261 binding assay, human adenosine A2A receptor (CHO cell membranes, SPA); conditions: recombinant human A2A receptor in CHO membranes, [3H]-SCH-58261 1 nM; read-out: hA2 (pKi) (converted)
T1 construct: expressed in transfected cells; host or cells: CHO cells, semliki forest virus expression system; washed membranes
T1 sequence (P29274 whole entry): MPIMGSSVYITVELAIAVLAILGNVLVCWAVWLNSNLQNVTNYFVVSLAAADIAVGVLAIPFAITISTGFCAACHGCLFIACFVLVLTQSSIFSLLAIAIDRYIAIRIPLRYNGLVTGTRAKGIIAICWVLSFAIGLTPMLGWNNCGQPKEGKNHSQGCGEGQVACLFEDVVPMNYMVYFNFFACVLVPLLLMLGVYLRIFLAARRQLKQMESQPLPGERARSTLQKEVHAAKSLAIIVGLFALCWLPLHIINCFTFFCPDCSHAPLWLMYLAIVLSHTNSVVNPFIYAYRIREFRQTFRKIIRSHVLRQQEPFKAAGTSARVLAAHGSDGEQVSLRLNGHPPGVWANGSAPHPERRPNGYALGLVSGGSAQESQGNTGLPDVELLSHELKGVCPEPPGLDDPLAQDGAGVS
Description: Human Adenosine A2A Receptor
(§1) The human adenosine A2A receptor was recombinantly expressed in Chinese hamster ovary (CHO) cells using the semliki forest virus expression system. Cells were harvested, washed twice by centrifugation, homogenized and again washed by centrifugation. The final washed membrane pellet was suspended in a Tris (50 mM) buffer containing 120 mM NaCl, 5 mM KCl, 2 mM CaCl2 and 10 mM MgCl2 (pH 7.4) (buffer A). The [^3H]-SCH-58261 (Dionisotti et al., 1997, Br J Pharmacol 121, 353; 1 nM) binding assay was carried out in 96-well plates in the presence of 2.5 μg of membrane protein, 0.5 mg of Ysi-poly-1-lysine SPA beads and 0.1 U adenosine deaminase in a final volume of 200 μl of buffer A. Non-specific binding was defined using xanthine amine congener (XAC; 2 μM). Compounds were tested at 10 concentrations from 10 μM-0.3 nM. All assays were conducted in duplicate and repeated at least two times. Assay plates were incubated for 1 hour at room temperature before centrifugation and then bound ligand determined using a Packard Topcount scintillation counter. IC50 values were calculated using a non-linear curve fitting program and Ki values calculated using the Cheng-Prussoff equation.

[2] = target: T2, human adenosine A1 receptor (Homo sapiens, UniProt P30542); test: [3H]-DPCPX binding assay, human adenosine A1 receptor (CHO cell membranes, SPA); conditions: selectivity of hA2A versus hA1 binding
T2 construct: expressed in transfected cells; host or cells: CHO cells, semliki forest virus expression system; washed membranes
T2 sequence (P30542 1-326): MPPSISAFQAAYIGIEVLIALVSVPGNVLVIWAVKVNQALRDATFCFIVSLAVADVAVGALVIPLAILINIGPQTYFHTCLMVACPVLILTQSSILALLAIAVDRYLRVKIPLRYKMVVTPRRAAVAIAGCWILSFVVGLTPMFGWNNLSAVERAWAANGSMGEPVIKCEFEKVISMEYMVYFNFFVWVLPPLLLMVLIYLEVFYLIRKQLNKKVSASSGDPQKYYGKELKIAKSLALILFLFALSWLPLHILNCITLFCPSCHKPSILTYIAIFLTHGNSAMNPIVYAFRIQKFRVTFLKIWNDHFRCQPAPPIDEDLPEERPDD
Description: Human Adenosine A1 Receptor
as §1, with “A1” for “A2A”, “[^3H]-DPCPX (([propyl-^3H]8-cyclopentyl-1,3-dipropyxanthine); 0.6” for “[^3H]-SCH-58261 (Dionisotti et al., 1997, Br J Pharmacol 121, 353; 1”, “ligand was” for “ligand”

| Ki [1] [nM] | Selectivity to hA1 [2] | SMILES |
| --- | --- | --- |
| 1.45 | 1421 | COc1ccc(C2COCCO2)c2sc(NC(=O)c3ccnc(C4=CCOCC4)c3)nc12 (racemic) [Example 5, (±)-2-(3,6-Dihydro-2H-pyran-4-yl)-N-(7-[1,4]dioxan-2-yl-4-methoxy-benzothiazol-2-yl)-isonicotinamide] |
| 0.955 | 1758 | COc1ccc(C2COCCO2)c2sc(NC(=O)c3ccnc(C)c3)nc12 (single isomer, unassigned; (+)) [Example 15, (+)-N-(7-[1,4]Dioxan-2-yl-4-methoxy-benzothiazol-2-yl)-2-methyl-isonicotinamide] |
| 0.832 | 1005 | COc1ccc(C2COCCO2)c2sc(NC(=O)c3ccc(F)cc3)nc12 (single isomer, unassigned; (+)) [Example 16, (+)-N-(7-[1,4]Dioxan-2-yl-4-methoxy-benzothiazol-2-yl)-4-fluoro-benzamide] |
| 0.977 | 7378 | COc1ccc(C2COCCO2)c2sc(NC(=O)c3ccnc(N4CCC4)c3)nc12 (single isomer, unassigned; (+)) [Example 18, (+)-2-Azetidin-1-yl-N-(7-[1,4]dioxan-2-yl-4-methoxy-benzothiazol-2-yl)-isonicotinamide] |
| 0.891 | 6138 | COc1ccc(C2COCCO2)c2sc(NC(=O)c3ccnc(N4CC(F)C4)c3)nc12 (single isomer, unassigned; (+)) [Example 30, (+)-N-(7-[1,4]Dioxan-2-yl-4-methoxy-benzothiazol-2-yl)-2-(3-fluoro-azetidin-1-yl)-isonicotinamide] |
| 0.708 | 1238 | COc1ccc(C(=O)Nc2nc3c(OC)ccc(C4COCCO4)c3s2)cc1 (single isomer, unassigned; (+)) [Example 33, (+)-N-(7-[1,4]Dioxan-2-yl-4-methoxy-benzothiazol-2-yl)-4-methoxy-benzamide] |
| 0.417 | 4503 | COc1ccc(C2COCCO2)c2sc(NC(=O)c3ccc(C)cc3)nc12 (single isomer, unassigned; (+)) [Example 34, (+)-N-(7-[1,4]Dioxan-2-yl-4-methoxy-benzothiazol-2-yl)-4-methyl-benzamide] |
| 0.537 | 1411 | COc1ccc(C2COCCO2)c2sc(NC(=O)c3ccc4c(c3)OCO4)nc12 (single isomer, unassigned; (+)) [Example 36, (+)-Benzo[1,3]dioxole-5-carboxylic acid (7-[1,4]dioxan-2-yl-4-methoxy-benzothiazol-2-yl)-amide] |
| 0.501 | 3141 | COc1ccc(C2COCCO2)c2sc(NC(=O)c3ccnc(OCCN4CCOCC4)c3)nc12 (single isomer, unassigned; (+)) [Example 52, (+)-N-(7-[1,4]Dioxan-2-yl-4-methoxy-benzothiazol-2-y)-2-(2-morpholin-4-yl-ethoxy)-isonicotinamide] |

More lines, now with the values behind:

| SMILES | Ki [1] [nM] | Selectivity to hA1 [2] |
| --- | --- | --- |
| COc1ccc(C2COCCO2)c2sc(NC(=O)c3ccnc(C4CCOCC4)c3)nc12 (racemic) [Example 6, (±)-N-(7-[1,4]Dioxan-2-yl-4-methoxy-benzothiazol-2-yl)-2-(tetrahydro-pyran-4-yl)-isonicotinamide] | 1.32 | 1582 |
| COc1cc(C(=O)Nc2nc3c(OC)ccc(C4COCCO4)c3s2)ccn1 (single isomer, unassigned; (+)) [Example 14, (+)-N-(7-[1,4]Dioxan-2-yl-4-methoxy-benzothiazol-2-yl)-2-methoxy-isonicotinamide] | 1.2 | 1828 |
| COc1ccc(C2COCCO2)c2sc(NC(=O)c3ccnc(N4CCOCC4)c3)nc12 (single isomer, unassigned; (+)) [Example 17, (+)-N-(7-[1,4]Dioxan-2-yl-4-methoxy-benzothiazol-2-yl)-2-morpholin-4-yl-isonicotinamide] | 0.676 | 3874 |
| COc1ccc(C2COCCO2)c2sc(NC(=O)c3ccnc(N4CCC(O)CC4)c3)nc12 (single isomer, unassigned; (+)) [Example 29, (+)-4-Hydroxy-3,4,5,6-tetrahydro-2H-[1,2′]bipyridinyl-4′-carboxylic acid (7-[1,4]dioxan-2-yl-4-methoxy-benzothiazol-2-yl)-amide] | 1.07 | 2850 |
| CCOC1CN(c2cc(C(=O)Nc3nc4c(OC)ccc(C5COCCO5)c4s3)ccn2)C1 (single isomer, unassigned; (+)) [Example 31, (+)-N-(7-[1,4]Dioxan-2-yl-4-methoxy-benzothiazol-2-yl)-2-(3-ethoxy-azetidin-1-yl)-isonicotinamide] | 1.23 | 2718 |
| COc1ccc(C2COCCO2)c2sc(NC(=O)c3ccnc(N4CC(OC)C4)c3)nc12 (single isomer, unassigned; (+)) [Example 32, (+)-N-(7-[1,4]Dioxan-2-yl-4-methoxy-benzothiazol-2-yl)-2-(3-methoxy-azetidin-1-yl)-isonicotinamide] | 0.646 | 5404 |
| COc1cccc(C(=O)Nc2nc3c(OC)ccc(C4COCCO4)c3s2)c1 (single isomer, unassigned; (+)) [Example 37, (+)-N-(7-[1,4]Dioxan-2-yl-4-methoxy-benzothiazol-2-yl)-3-methoxy-benzamide] | 0.724 | 10082 |
| COc1ccc(C2COCCO2)c2sc(NC(=O)c3cccc(F)c3)nc12 (single isomer, unassigned; (+)) [Example 39, (+)-N-(7-[1,4]Dioxan-2-yl-4-methoxy-benzothiazol-2-yl)-3-fluoro-benzamide] | 1.07 | 674 |
| COc1ccc(C2COCCO2)c2sc(NC(=O)c3ccnc(N4CC(O)C4)c3)nc12 (single isomer, unassigned; (+)) [Example 49, (+)-N-(7-[1,4]Dioxan-2-yl-4-methoxy-benzothiazol-2-yl)-2-(3-hydroxy-azetidin-1-yl)-isonicotinamide] | 0.851 | 2319 |
| COc1cncc(C(=O)Nc2nc3c(OC)ccc(C4COCCO4)c3s2)c1 (single isomer, unassigned; (+)) [Example 53, (+)-N-(7-[1,4]Dioxan-2-yl-4-methoxy-benzothiazol-2-yl)-5-methoxy-nicotinamide] | 0.832 | 8832 |
